In patent publication US8999994B2, “Derivatives of propargylamine having neuroprotective capacity for the treatment of Alzheimer's and Parkinson's diseases” (Consejo Superior de Investigaciones Cientificas, priority 2010, dated 2015):
Read-outs that look alike come from different tables or passages of the source.

Legend:
Format in all cases: biochemical
AChE (electric eel) = AChE (electric eel) (Electrophorus electricus (Electric eel) (Gymnotus electricus), UniProt O42275); details: acetylthiocholine iodide […], 10 min incubation, mean ± SEM, read-out: IC50 (μM) ChE EeAChE
MAO-A = MAO-A (Rattus norvegicus (Rat), UniProt P21396); experiment: Inhibition of monoamine oxidase A (Fowler and Tipton radiometric method, rat liver mitochondria)
MAO-B = MAO-B (Rattus norvegicus (Rat), UniProt P19643); experiment: Inhibition of monoamine oxidase B (Fowler and Tipton radiometric method, rat liver mitochondria)
[1] = rat liver mitochondria, [14C]-5-HT 100 μM substrate, 30 min incubation, mean ± SEM, read-out: IC50 (μM) MAO MAO-A
[2] = rat liver mitochondria, [14C]-phenylethylamine 20 μM substrate, 30 min incubation, mean ± SEM

Chain of MAO-A (P21396 whole entry): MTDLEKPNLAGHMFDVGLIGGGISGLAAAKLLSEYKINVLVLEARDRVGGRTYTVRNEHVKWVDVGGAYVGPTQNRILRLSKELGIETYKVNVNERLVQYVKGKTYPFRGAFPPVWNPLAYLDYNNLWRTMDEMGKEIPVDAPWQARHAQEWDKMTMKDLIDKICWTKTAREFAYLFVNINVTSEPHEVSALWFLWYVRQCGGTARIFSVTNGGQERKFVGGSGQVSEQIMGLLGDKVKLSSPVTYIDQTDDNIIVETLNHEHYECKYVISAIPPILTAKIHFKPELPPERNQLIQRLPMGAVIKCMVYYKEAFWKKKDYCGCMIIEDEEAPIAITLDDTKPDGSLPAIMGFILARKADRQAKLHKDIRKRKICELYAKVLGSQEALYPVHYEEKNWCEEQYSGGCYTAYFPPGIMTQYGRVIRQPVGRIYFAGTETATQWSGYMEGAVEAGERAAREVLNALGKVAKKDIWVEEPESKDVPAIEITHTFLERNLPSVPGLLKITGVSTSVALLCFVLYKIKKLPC
Chain of AChE (electric eel) (O42275 whole entry, looked up): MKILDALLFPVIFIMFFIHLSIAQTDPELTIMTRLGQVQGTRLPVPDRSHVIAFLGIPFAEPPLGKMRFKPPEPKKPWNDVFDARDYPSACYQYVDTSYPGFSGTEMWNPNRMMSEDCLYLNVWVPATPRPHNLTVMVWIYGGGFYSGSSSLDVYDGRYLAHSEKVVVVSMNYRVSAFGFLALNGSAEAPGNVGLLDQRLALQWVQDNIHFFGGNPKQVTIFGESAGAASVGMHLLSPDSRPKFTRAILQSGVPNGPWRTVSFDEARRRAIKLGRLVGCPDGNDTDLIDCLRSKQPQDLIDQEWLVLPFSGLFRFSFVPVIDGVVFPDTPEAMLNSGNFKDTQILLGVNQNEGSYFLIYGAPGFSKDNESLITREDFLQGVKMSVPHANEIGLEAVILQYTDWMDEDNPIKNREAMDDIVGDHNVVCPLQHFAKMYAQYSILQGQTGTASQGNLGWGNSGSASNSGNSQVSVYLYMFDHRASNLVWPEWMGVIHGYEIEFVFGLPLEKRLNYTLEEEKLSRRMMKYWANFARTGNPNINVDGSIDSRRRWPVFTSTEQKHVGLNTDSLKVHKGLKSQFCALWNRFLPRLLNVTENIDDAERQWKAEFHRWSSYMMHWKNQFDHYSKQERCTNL
Chain of MAO-B (P19643 whole entry): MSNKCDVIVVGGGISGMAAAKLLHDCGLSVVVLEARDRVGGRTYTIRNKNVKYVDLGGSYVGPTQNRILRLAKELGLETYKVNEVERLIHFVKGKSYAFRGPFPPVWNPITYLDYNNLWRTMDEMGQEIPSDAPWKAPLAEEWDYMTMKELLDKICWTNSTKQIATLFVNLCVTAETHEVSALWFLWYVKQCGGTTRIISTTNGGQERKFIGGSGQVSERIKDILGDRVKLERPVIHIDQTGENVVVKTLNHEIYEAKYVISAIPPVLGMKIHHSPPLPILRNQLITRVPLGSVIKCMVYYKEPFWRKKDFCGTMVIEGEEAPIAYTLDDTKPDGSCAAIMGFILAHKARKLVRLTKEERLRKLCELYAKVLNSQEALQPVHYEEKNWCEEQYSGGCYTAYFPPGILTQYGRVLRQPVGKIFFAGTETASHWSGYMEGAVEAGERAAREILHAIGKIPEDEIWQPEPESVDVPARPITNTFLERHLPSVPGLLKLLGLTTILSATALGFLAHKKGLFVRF

| Compound | IC50 (AChE (electric eel)) [µM] | IC50 (MAO-A; [1]) [µM] | IC50 (MAO-B; [2]) [µM] | IC50 (MAO-B) [µM] | IC50 (μM) MAO MAO-B (MAO-B) [µM] | IC50 (MAO-A; read-out: IC50 (μM) MAO MAO-A) [µM] | IC50 (MAO-A) [µM] |
| --- | --- | --- | --- | --- | --- | --- | --- |
| C#CCN(C)Cc1cc2cc(OCCCCC3CCN(Cc4ccccc4)CC3)ccc2n1C [Compound 7, N-((5-[4-(1-benzylpiperidin-4-yl)butoxy)-1-methyl-1H-indol-2-yl)methyl)-N-methylprop-2-yn-1-amine] | 0.26 ± 0.07 | 0.0105 ± 0.0044 | 2.77 ± 0.116 |  |  |  |  |
| C#CCN(C)Cc1cc2cc(OCC3CCN(Cc4ccccc4)CC3)ccc2n1C [Compound 4, N-{(5-((1-benzylpiperidin-4-yl)methoxy)-1-methyl-1H-indol-2-yl)methyl}-N-methylprop-2-yn-1-amine] | 0.31 ± 0.04 | 0.0822 ± 0.0032 |  | 0.745 ± 0.0199 |  |  |  |
| C#CCN(C)Cc1cc2cc(OCCCC3CCN(Cc4ccccc4)CC3)ccc2n1C [Compound 6, N-((5-[3-(1-benzylpiperidin-4-yl)propoxy)-1-methyl-1H-indol-2-yl)methyl)-N-methylprop-2-yn-1-amine] |  | 0.0052 ± 0.0011 | 0.0431 ± 0.0079 |  |  |  |  |
| Nc1c2c(nc3ccccc13)CCCC2 [Tacrine, tacrine, reference compound] |  |  |  |  | 499.6 ± 12.8 |  |  |
| C#CCN(C)Cc1cc2cc(OCCC3CCN(Cc4ccccc4)CC3)ccc2n1C [Compound 5, N-((5-(2-(1-benzylpiperidin-4-yl)ethoxy)-1-methyl-1H-indol-2-yl)methyl)-N-methylprop-2-yn-1-amine] | 0.42 ± 0.04 | 0.0067 ± 0.0018 |  | 0.13 ± 0.0414 |  |  |  |
| C#CCN(C)Cc1cc2cc(OCCN3CCC(Cc4ccccc4)CC3)ccc2n1C [Compound 1, N-{(5-[2-(4-benzylpiperidin-1-yl)ethoxy)-1-methyl-1H-indol-2-yl]methyl}-N-methylprop-2-yn-1-amine] | > 100 | 0.143 ± 0.0443 | 1.46 ± 0.499 |  |  |  |  |
| C#CCN(C)Cc1cc2cc(OCCCN3CCC(Cc4ccccc4)CC3)ccc2n1C [Compound 2, N-{(5-[3-(4-benzylpiperidin-1-yl)propoxy)-1-methyl-1H-indol-2-yl]methyl}-N-methylprop-2-yn-1-amine] | 18.1 ± 0.4 |  | 11.3 ± 2.38 |  |  | 0.0654 ± 0.0174 |  |
| C#CCN(C)Cc1cc2cc(OCCCN3CCN(Cc4ccccc4)CC3)ccc2n1C [Compound 3, N-{(5-[3-(4-benzylpiperazin-1-yl)propoxy)-1-methyl-1H-indol-2-yl]methyl}-N-methylprop-2-yn-1-amine] | > 100 |  | 1.64 ± 0.707 |  |  |  | 0.0305 ± 0.0135 |
